pIC50: −log10 of the molar value.
Key:
Assay in all cases: prolyl hydroxylation assay of HIF-1α peptide, VBC binding by fluorescence polarization
Assay type in all cases: biochemical
HIF-PHD1 = target: T1, HIF-PHD1 (Homo sapiens, UniProt Q96KS0)
T1 construct: gene EGLN2

HIF-PHD2 = target: T2, HIF-PHD2 (Homo sapiens, UniProt Q9GZT9)
T2 construct: gene EGLN1

HIF-PHD3 = target: T3, HIF-PHD3 (Homo sapiens, UniProt Q9H6Z9)
T3 construct: gene EGLN3
T3 sequence (Q9H6Z9 whole entry): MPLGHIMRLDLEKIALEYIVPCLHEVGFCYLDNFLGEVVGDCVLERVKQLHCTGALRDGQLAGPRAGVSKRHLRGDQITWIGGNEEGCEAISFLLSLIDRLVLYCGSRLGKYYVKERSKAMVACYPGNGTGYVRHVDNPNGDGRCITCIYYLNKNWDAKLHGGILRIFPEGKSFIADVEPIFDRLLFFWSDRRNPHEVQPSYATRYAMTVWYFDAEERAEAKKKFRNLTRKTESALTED

T1 sequence (Q96KS0 whole entry): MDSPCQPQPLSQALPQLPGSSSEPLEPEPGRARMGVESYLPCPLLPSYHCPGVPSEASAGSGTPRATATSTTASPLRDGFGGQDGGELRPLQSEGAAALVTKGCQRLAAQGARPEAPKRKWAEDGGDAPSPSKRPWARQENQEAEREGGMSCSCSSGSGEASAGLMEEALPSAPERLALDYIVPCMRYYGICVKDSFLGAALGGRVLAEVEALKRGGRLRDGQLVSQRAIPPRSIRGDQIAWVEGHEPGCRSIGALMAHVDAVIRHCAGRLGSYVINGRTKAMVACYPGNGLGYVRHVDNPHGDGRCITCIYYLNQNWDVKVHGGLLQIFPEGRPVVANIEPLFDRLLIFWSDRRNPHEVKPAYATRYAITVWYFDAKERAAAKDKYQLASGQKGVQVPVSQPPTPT
T2 sequence (Q9GZT9 2-426): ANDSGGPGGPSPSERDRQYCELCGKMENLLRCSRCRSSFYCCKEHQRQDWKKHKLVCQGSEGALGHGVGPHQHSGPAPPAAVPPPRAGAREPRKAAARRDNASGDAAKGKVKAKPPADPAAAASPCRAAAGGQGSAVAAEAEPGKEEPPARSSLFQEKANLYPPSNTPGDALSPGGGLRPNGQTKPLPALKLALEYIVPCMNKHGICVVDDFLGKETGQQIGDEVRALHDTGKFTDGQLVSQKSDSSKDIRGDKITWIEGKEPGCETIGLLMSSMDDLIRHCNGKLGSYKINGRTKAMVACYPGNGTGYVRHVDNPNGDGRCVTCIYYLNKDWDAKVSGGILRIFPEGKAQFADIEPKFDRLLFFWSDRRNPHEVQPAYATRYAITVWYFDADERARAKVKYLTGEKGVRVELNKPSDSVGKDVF

pIC50 (HIF-PHD1): 7.52
pIC50 (HIF-PHD2): 7.70
pIC50 (HIF-PHD3): 7.10
Substance: CG-598

Source: article PMC7840603, “Local Stabilization of Hypoxia-Inducible Factor-1α Controls Intestinal Inflammation via Enhanced Gut Barrier Function and Immune Regulation” (Frontiers in Immunology, 2021)
